Reference: US20190083462A1, “PREVENTION OF NSAID ENTEROPATHY WITH MICROBIOTA-DERIVED TRYPTOPHAN-METABOLITE” (THE TEXAS A&M UNIVERSITY SYSTEM, priority 2016, published 2019)
Marks after values point to notes of the source that are not given here.

How the values were obtained:
fecal microbiota = test: Fecal microbiota 16S rRNA sequencing (ANOSIM, SIMPER); assay type: in vivo, mice
[1] = test system: CD11b- and GR-1-positive cells (i.e., neutrophils); test: Flow cytometry of spleen and mesenteric lymph nodes; assay type: in vivo, mice; conditions: after 7 days of treatment
Description: Eight- to 10-week-old specific-pathogen-free C57BL/6J mice were purchased and allowed to acclimate for 2 weeks. Mice were fed standardized laboratory rodent diet and sterile water ad libitum. […] Mice were then rehoused on the basis of treatment group assignment, with 5 animals/group-cage. To induce NSAID enteropathy, mice in group 1 were gavaged once daily with indomethacin (5 mg/kg; for 7 days; Sigma Aldrich, St. Louis, Mo.) dissolved in dimethylysulfoxide (DMSO) (Sigma Aldrich, St. Louis, Mo.) and further diluted in phosphate buffered saline (PBS). […] Sigma Aldrich, St. Louis, Mo.) dissolved in sterile water warmed to 55° C. […] All mice were gavaged with equal volumes (200 μL) and equal concentrations of DMSO (0.001%). Feces were collected daily by placing individual animals in sterile plastic cups that were RNase- and DNase-free until they passed feces. The mice were immediately returned to their home cages and the feces immediately flash frozen at -80° C. All animals were euthanized via CO2 asphyxiation on day 8 (i.e., after 7 days of treatment). […] Life Technologies, Carlsbad, Calif.), homogenized, and prepared as a single cell suspension for flow cytometric analysis as previously described (Wang […]. Measuring bacterial load and immune responses in mice infected with Listeria monocytogenes. Journal of Visualized Experiments: JoVE 2011). […]

[2] = unweighted Unifrac distance metric, day 7

SMILES: COc1ccc2c(c1)c(CC(=O)O)c(C)n2C(=O)c1ccc(Cl)cc1 [NSAID, indomethacin]
- members of the Bacteroidales S24-7 family (fecal microbiota; SIMPER, day 7 feces): gain
- mean % abundance (fecal microbiota; family Unassigned, Other, day 7 feces): 0.00317%
- mean % abundance (fecal microbiota; family c_Bacilli, Other, day 7 feces): 0%
- mean % abundance (fecal microbiota; family o_Actinomycetales, f_Micrococcaceae, day 7 feces): 0.00951%
- mean % abundance (fecal microbiota; family o_Anaeroplasmatales, f_Anaeroplasmataceae, day 7 feces): 0.0317%
- mean % abundance (fecal microbiota; family o_Bacillales, Other, day 7 feces): 0.019%
- mean % abundance (fecal microbiota; family o_Bacillales, f_Bacillaceae, day 7 feces): 0.00317%
- mean % abundance (fecal microbiota; family o_Bacillales, f_Staphylococcaceae, day 7 feces): 0.019%
- mean % abundance (fecal microbiota; family o_Bacteroidale, f_Bacteroidaceae, day 7 feces): 0.00634%
- mean % abundance (fecal microbiota; family o_Bacteroidales, f_Prevotellaceae, day 7 feces): 0.00317%
- mean % abundance (fecal microbiota; family o_Bacteroidales, f_S24-7, day 7 feces): 81.2%
- mean % abundance (fecal microbiota; family o_Clostridiales, Other, day 7 feces): 0.00317%
- mean % abundance (fecal microbiota; family o_Clostridiales, f_ (unnamed), day 7 feces): 7.67%
- mean % abundance (fecal microbiota; family o_Clostridiales, f_Clostridiaceae, day 7 feces): 1.68%
- mean % abundance (fecal microbiota; family o_Clostridiales, f_Dehalobacteriaceae, day 7 feces): 0.00634%
- mean % abundance (fecal microbiota; family o_Clostridiales, f_Lachnosoiraceae, day 7 feces): 1.31%
- mean % abundance (fecal microbiota; family o_Clostridiales, f_Ruminococcaceae, day 7 feces): 3.53%
- mean % abundance (fecal microbiota; family o_Clostridiales, f_[Mogibacteriaceae], day 7 feces): 0.00634%
- mean % abundance (fecal microbiota; family o_Coriobacteriales, f_Coriobacteriaceae, day 7 feces): 0.0381%
- mean % abundance (fecal microbiota; family o_Cytophagales, f_Cytophagacae, day 7 feces): 0%
- mean % abundance (fecal microbiota; family o_Erysipelotrichales, f_Erysipelotrichaceae, day 7 feces): 0.136%
- mean % abundance (fecal microbiota; family o_Lactobacillales, f_Aerococcaceae, day 7 feces): 0%
- mean % abundance (fecal microbiota; family o_Lactobacillales, f_Enterococcaceae, day 7 feces): 0.171%
- mean % abundance (fecal microbiota; family o_Lactobacillales, f_Lactobacillaceae, day 7 feces): 2.48%
- mean % abundance (fecal microbiota; family o_Lactobacillales, f_Streptococcaceae, day 7 feces): 0%
- mean % abundance (fecal microbiota; family o_RF 39, f_ (unnamed), day 7 feces): 1.62%
- mean % abundance (fecal microbiota; family o_Turicibacterales, f_Turicibacteraceae, day 7 feces): 0.0412%
- abundance of members of the phyla Firmicutes and Bacteroidetes (fecal microbiota; fecal 16S rRNA sequences, Day 0 vs Day 7): no significant difference
- mean % abundance (fecal microbiota; mouse, in vivo): 0%
- mean % abundance (fecal microbiota; order Unassigned, Other, day 7 feces): 0.00317%
- mean % abundance (fecal microbiota; order c_Mollicutes, o_RF39, day 7 feces): 1.62%
- mean % abundance (fecal microbiota; order o_Actinomycetales, day 7 feces): 0.00951%
- mean % abundance (fecal microbiota; order o_Anaeroplasmatales, day 7 feces): 0.0317%
- mean % abundance (fecal microbiota; order o_Bacillales, day 7 feces): 0.0412%
- mean % abundance (fecal microbiota; order o_Bacteroidales, day 7 feces): 81.2%
- mean % abundance (fecal microbiota; order o_Clostridiales, day 7 feces): 14.2%
- mean % abundance (fecal microbiota; order o_Coriobacteriales, day 7 feces): 0.0381%
- mean % abundance (fecal microbiota; order o_Cytophagales, day 7 feces): 0%
- mean % abundance (fecal microbiota; order o_Erysipelotrichales, day 7 feces): 0.136%
- mean % abundance (fecal microbiota; order o_Lactobacillales, day 7 feces): 2.65%
- mean % abundance (fecal microbiota; order o_Turicibacterales, day 7 feces): 0.0412%
- mean % abundance (fecal microbiota; order p_Firmicutes, c_Bacilli, Other, day 7 feces): 0%
- mean % abundance (fecal microbiota; phylum Unassigned, Other, day 7 feces): 0.00317%
- mean % abundance (fecal microbiota; phylum k_Bacteria, Other, day 7 feces): 0%
- mean % abundance (fecal microbiota; phylum k_Bacteria, p_Acidobacteria, day 7 feces): 0.00317%
- mean % abundance (fecal microbiota; phylum k_Bacteria, p_Actinobacteria, day 7 feces): 0.0476%
- mean % abundance (fecal microbiota; phylum k_Bacteria, p_Bacteroidetes, day 7 feces): 81.2%
- mean % abundance (fecal microbiota; phylum k_Bacteria, p_Cyanobacteria, day 7 feces): 0.00634%
- mean % abundance (fecal microbiota; phylum k_Bacteria, p_Firmicutes, day 7 feces): 17.1%
- mean % abundance (fecal microbiota; phylum k_Bacteria, p_Proteobacteria, day 7 feces): 0.00317%
- mean % abundance (fecal microbiota; phylum k_Bacteria, p_Tenericutes, day 7 feces): 1.66%
- mean % abundance (fecal microbiota; phylum k_Bacteria, p_Verrucomicrobia, day 7 feces): 0%
- Pairwise ANOSIM R-value vs Control (fecal microbiota; [2]): 0.5487*
- Pairwise ANOSIM R-value vs Indole (fecal microbiota; [2]): 0.2615
- Pairwise ANOSIM R-value vs NSAID + Indole (fecal microbiota; [2]): 0.4444
- percentage of CD11b- and GR-1-positive cells (neutrophils) in the mesenteric lymph nodes (MLN) [1]: significant increase
- percentage of CD11b- and GR-1-positive cells (neutrophils) in the spleen [1]: significant increase
